What was measured:
[1] = target: T1, 5-hydroxytryptamine receptor 6 (Homo sapiens, UniProt P50406); experiment: Displacement of [3H]-LSD from 5-HT6 receptor (unknown origin)
[2] = target: T2, 5-hydroxytryptamine receptor 1A (Homo sapiens, UniProt P08908); experiment: Displacement of [3H]-8-OH-DPAT from 5HT1A receptor (unknown origin)
T2 sequence (P08908 whole entry): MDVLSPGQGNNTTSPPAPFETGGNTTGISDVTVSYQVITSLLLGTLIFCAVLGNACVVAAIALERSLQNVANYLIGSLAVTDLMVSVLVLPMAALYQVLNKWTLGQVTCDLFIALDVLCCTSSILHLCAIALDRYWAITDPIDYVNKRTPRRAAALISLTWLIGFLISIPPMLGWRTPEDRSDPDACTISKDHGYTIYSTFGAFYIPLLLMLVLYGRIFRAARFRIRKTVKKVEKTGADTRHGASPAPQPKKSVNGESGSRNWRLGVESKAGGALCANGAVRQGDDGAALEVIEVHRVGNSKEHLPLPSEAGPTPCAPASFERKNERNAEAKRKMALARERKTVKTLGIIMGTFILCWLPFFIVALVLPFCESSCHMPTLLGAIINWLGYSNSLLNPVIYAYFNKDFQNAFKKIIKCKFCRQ

[3] = target: 5-hydroxytryptamine receptor 2A (Homo sapiens, UniProt P28223); experiment: Binding affinity to 5HT2A receptor (unknown origin)
[4] = target: 5-hydroxytryptamine receptor 7 (Homo sapiens, UniProt P34969); experiment: Displacement of [3H]-5-CT from 5-HT7b receptor (unknown origin)
D(2) dopamine receptor = D(2) dopamine receptor (Homo sapiens, UniProt P14416); experiment: Displacement of [3H]-Raclopride from D2L receptor (unknown origin)
[5] = target: T1, 5-hydroxytryptamine receptor 6; experiment: Antagonist activity at 5-HT6 receptor (unknown origin) expressed in HEK293 cells assessed as inhibition of 5-CT induced cAMP production after 30 mins by TR-FRET assay; assay type: functional, cell-based

5-hydroxytryptamine receptor 7, sequence (P34969 whole entry): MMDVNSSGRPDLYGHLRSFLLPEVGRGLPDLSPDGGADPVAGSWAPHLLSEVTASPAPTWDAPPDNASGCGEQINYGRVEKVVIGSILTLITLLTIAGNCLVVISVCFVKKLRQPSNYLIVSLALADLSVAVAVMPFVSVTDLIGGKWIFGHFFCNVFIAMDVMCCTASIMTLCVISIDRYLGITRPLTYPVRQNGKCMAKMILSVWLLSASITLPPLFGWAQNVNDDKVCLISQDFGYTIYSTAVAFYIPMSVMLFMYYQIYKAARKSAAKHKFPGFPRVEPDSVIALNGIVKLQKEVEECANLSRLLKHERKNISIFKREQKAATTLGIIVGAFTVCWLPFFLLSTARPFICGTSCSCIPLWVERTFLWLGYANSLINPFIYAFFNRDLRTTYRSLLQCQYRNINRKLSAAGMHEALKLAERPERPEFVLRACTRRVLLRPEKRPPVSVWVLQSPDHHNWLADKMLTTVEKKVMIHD
T1 sequence (P50406 whole entry): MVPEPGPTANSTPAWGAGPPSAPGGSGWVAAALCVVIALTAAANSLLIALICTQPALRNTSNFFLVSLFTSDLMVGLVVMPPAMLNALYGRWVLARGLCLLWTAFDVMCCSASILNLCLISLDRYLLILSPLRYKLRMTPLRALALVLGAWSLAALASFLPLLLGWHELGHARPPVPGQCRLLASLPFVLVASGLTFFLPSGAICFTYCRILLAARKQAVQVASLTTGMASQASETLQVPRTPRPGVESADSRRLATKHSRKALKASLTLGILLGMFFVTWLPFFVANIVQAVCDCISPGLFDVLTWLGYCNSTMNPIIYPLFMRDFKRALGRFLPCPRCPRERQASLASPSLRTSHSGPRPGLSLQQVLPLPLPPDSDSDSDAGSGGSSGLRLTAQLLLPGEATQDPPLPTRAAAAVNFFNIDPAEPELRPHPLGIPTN
5-hydroxytryptamine receptor 2A, sequence (P28223 whole entry): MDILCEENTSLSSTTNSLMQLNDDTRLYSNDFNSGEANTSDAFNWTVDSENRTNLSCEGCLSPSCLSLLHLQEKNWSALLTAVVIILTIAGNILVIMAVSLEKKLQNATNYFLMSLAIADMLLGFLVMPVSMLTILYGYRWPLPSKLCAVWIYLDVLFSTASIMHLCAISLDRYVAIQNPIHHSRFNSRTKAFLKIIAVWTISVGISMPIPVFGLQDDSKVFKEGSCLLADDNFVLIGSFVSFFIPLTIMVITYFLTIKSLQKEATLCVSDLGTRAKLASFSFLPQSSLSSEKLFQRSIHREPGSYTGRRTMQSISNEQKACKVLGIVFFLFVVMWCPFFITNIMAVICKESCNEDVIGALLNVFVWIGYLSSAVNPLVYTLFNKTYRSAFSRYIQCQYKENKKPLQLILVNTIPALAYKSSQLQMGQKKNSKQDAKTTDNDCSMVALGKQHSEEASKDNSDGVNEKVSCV
D(2) dopamine receptor, sequence (P14416 whole entry): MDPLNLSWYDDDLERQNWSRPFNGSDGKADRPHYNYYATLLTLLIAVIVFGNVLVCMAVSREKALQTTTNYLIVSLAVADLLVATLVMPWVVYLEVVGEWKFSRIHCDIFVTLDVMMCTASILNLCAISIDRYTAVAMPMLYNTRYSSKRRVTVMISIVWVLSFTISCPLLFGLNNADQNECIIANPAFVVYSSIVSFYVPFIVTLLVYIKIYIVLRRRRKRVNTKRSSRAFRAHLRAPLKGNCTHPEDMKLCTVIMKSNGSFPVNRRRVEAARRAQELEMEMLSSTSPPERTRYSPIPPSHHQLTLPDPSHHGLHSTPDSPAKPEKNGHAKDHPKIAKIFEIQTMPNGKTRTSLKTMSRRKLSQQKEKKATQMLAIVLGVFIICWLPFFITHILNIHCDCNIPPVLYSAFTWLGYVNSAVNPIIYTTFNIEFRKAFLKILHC

Row | Ki [1] | Ki [2] | Ki [4] | Ki (D(2) dopamine receptor) | SMILES | Ki [3] | Kb [5]
1 | 0.005 µM | > 10 µM | 3.69 µM | 6.7 µM | CN(C)CC1=Cc2cn(S(=O)(=O)c3ccccc3)c3cccc(c23)O1 | 0.065 µM | 
2 | 0.001 µM | 5.97 µM | 0.438 µM | 1.49 µM | CN(C)CC1=Cc2cn(S(=O)(=O)c3cccc4ccccc34)c3cccc(c23)O1 | 0.489 µM | 
3 | 0.028 µM | > 10 µM | > 10 µM | 4.35 µM | CCN(CC)CC1=Cc2cn(S(=O)(=O)c3ccccc3)c3cccc(c23)O1 | 1.7 µM | 

Further lines, the compound ahead of its results:

Row | SMILES | Ki [1] | Ki [2] | Ki [4] | Ki (D(2) dopamine receptor) | Ki [3] | Kb [5]
4 | N#CC1=Cc2cn(S(=O)(=O)c3cccc4ccccc34)c3cccc(c23)O1 | 0.755 µM | > 10 µM | > 10 µM | > 10 µM |  | 
5 | CC1=C(CO)Oc2cccc3c2c1cn3S(=O)(=O)c1ccccc1 | 0.052 µM | > 10 µM | > 10 µM | > 10 µM | > 10 µM | 
6 | O=S(=O)(c1ccccc1)n1cc2c3c(cccc31)OC(CO)=C2 | 0.036 µM | > 10 µM | > 10 µM | > 10 µM | > 10 µM | 0.016 µM
7 | O=CC1=Cc2cn(S(=O)(=O)c3cccc4ccccc34)c3cccc(c23)O1 | 0.266 µM | > 10 µM | > 10 µM | 5.16 µM |  | 
8 | O=S(=O)(c1cccc2ccccc12)n1cc2c3c(cccc31)OC(CO)=C2 | 0.004 µM |  | > 10 µM | 4.29 µM | > 10 µM | 
9 | CC1=C(CO)Oc2cccc3c2c1cn3S(=O)(=O)c1cccc2ccccc12 | 0.02 µM | > 10 µM | > 10 µM | > 10 µM | > 10 µM | 

Reference: ChEMBL document CHEMBL3994665, “Pyrano[2,3,4-cd]indole as a Scaffold for Selective Nonbasic 5-HT6R Ligands” (ACS Med Chem Lett, 2017)
